Results on 15 compounds are retold here after PubChem BioAssay AID328 (DTP/NCI, 2004).

The test system of the experiment is BDF1 mice, P388 leukemia ip, median survival T/C. Kind of experiment: NCI In Vivo Anticancer Drug Screen. Data for tumor model P388 Leukemia (intraperitoneal) in B6D2F1 (BDF1) mice. The following applies: endpoint: median survival time, higher = longer survival. The gist of the method:
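Reported as T/C, where T is the survival measurement in dosed animals and C the same measurement in vehicle controls.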

Where [1] appears, read: dose: 6.25 mg/kg/injection, schedule: Q01DX009 (ip), vehicle: water.
[2] abbreviates: dose: 12.5 mg/kg/injection, schedule: Q01DX009 (ip), vehicle: water.
The mark [3] stands for this setting: dose: 25.0 mg/kg/injection, schedule: Q01DX009 (ip), vehicle: water.
Where [4] appears, read: dose: 50.0 mg/kg/injection, schedule: Q01DX009 (ip), vehicle: water.
The mark [5] stands for this setting: dose: 50.0 mg/kg/injection, schedule: Q04DX003 (ip), vehicle: water.
Setting [6] is: dose: 100.0 mg/kg/injection, schedule: Q01DX009 (ip), vehicle: water.
Where [7] appears, read: dose: 100.0 mg/kg/injection, schedule: Q04DX003 (ip), vehicle: water.
Where [8] appears, read: dose: 50.0 mg/kg/injection, schedule: Q01DX009 (ip), vehicle: saline with Tween-80.
Where [9] appears, read: dose: 100.0 mg/kg/injection, schedule: Q01DX009 (ip), vehicle: saline with Tween-80.
Setting [10] is: dose: 25.0 mg/kg/injection, schedule: Q01DX009 (ip), vehicle: saline.
Setting [11] is: dose: 50.0 mg/kg/injection, schedule: Q01DX009 (ip), vehicle: saline.
[12] abbreviates: dose: 100.0 mg/kg/injection, schedule: Q01DX009 (ip), vehicle: other.
[13] abbreviates: dose: 400.0 mg/kg/injection, schedule: Q01DX009 (ip), vehicle: other.
[14] abbreviates: dose: 12.5 mg/kg/injection, schedule: Q01DX009 (ip), vehicle: saline.
[15] abbreviates: dose: 200.0 mg/kg/injection, schedule: Q01DX009 (ip), vehicle: water.

Where “and” joins values, the source holds several entries; their conditions need not be identical. Identical values can stand only once. Inconclusive results and toxic doses are left out.

For the compound `CS(=O)(=O)OCc1c(O)c2c(c(O)c1COS(C)(=O)=O)C(=O)C=CC2=O`, the T/C was 103 % of control (dose: 3.12 mg/kg/injection, schedule: Q01DX009 (ip), vehicle: water); 102 % of control (dose: 3.12 mg/kg/injection, schedule: Q04DX003 (ip), vehicle: water); 114 % of control under setting [1]; 102 % of control (dose: 6.25 mg/kg/injection, schedule: Q04DX003 (ip), vehicle: water); 106 % of control under setting [2]; 93 % of control (dose: 12.5 mg/kg/injection, schedule: Q04DX003 (ip), vehicle: water). Moreover, the T/C was 107 % of control under setting [3]; 101 % of control (dose: 25.0 mg/kg/injection, schedule: Q04DX003 (ip), vehicle: water); 116 % of control under setting [4]; 102 % of control under setting [5]; 94 % of control under setting [6]; 108 % of control and 109 % of control under setting [7].
Take `O=[N+]([O-])c1ccc(NS(=O)(=O)c2cc(Cl)ccc2Cl)c(C(F)(F)F)c1`: the T/C under setting [8] is 96 % of control and the T/C under setting [9] is 100 % of control.
Turning to `Cc1ccn(C)c(=O)c1`, the T/C was 86 % of control under setting [10]; 86 % of control under setting [11]; 86 % of control and 100 % of control (dose: 100.0 mg/kg/injection, schedule: Q01DX009 (ip), vehicle: saline); 105 % of control (dose: 200.0 mg/kg/injection, schedule: Q01DX009 (ip), vehicle: saline).
In the case of `Cc1cc(=O)[nH]c(N/N=C2/CCCCC2C)n1` (stereo unspecified), the T/C (dose: 8.0 mg/kg/injection, schedule: Q01DX009 (ip), vehicle: Klucel (hydroxypropylcellulose) (HPC)) is 107 % of control; the T/C (dose: 16.0 mg/kg/injection, schedule: Q01DX009 (ip), vehicle: Klucel (hydroxypropylcellulose) (HPC)) is 107 % of control; the T/C (dose: 33.0 mg/kg/injection, schedule: Q01DX009 (ip), vehicle: Klucel (hydroxypropylcellulose) (HPC)) is 100 % of control; the T/C (dose: 100.0 mg/kg/injection, schedule: Q01DX009 (ip), vehicle: Klucel (hydroxypropylcellulose) (HPC)) was 100 % of control; the T/C (dose: 100.0 mg/kg/injection, schedule: Q04DX003 (ip), vehicle: Klucel (hydroxypropylcellulose) (HPC)) is 109 % of control; the T/C (dose: 200.0 mg/kg/injection, schedule: Q04DX003 (ip), vehicle: Klucel (hydroxypropylcellulose) (HPC)) is 95 % of control.
As for `CC1=CC(O)(C2(O)C=C(C)CC(C)(C)C2)CC(C)(C)C1` (stereo unspecified), the T/C by setting is: under setting [12], 94 % of control; (dose: 200.0 mg/kg/injection, schedule: Q01DX009 (ip), vehicle: other) 108 % of control; under setting [13], 103 % of control.
Take `CCOC(=O)CCC(NC(=O)c1cc(Cl)c(N(C)S(=O)(=O)c2ccc(C)cc2)cc1Cl)C(=O)OCC` (stereo unspecified): the T/C reads like this: (dose: 25.0 mg/kg/injection, schedule: Q01DX001 (ip), vehicle: saline sonified) 109 % of control; (dose: 50.0 mg/kg/injection, schedule: Q01DX001 (ip), vehicle: saline sonified) 104 % of control; (dose: 100.0 mg/kg/injection, schedule: Q01DX001 (ip), vehicle: saline sonified) 104 % of control.
With `CCCCCCCCCCCC(=O)NC1CC(O[C@H]2C[C@](O)(C(=O)CO)Cc3c(O)c4c(c(O)c32)C(=O)c2c(OC)cccc2C4=O)OC(C)C1O` (stereo partly specified), the T/C (dose: 0.78 mg/kg/injection, schedule: Q01DX009 (ip), vehicle: water) was 113 % of control; the T/C (dose: 3.13 mg/kg/injection, schedule: Q01DX009 (ip), vehicle: water) is 159 % of control; the T/C under setting [1] was 168 % of control; the T/C under setting [2] was 240 % of control; the T/C under setting [3] was 159 % of control.
On to `OC1(CSc2ccccc2)CCCCC1`, for which the T/C by setting is: under setting [8], 111 % of control; under setting [9], 116 % of control and 119 % of control; (dose: 200.0 mg/kg/injection, schedule: Q01DX009 (ip), vehicle: saline with Tween-80) 116 % of control; (dose: 400.0 mg/kg/injection, schedule: Q01DX009 (ip), vehicle: saline with Tween-80) 122 % of control.
`CCOC(=O)S(=O)(=O)c1ccc(C)cc1`: the T/C by setting is: (dose: 6.25 mg/kg/injection, schedule: Q01DX009 (ip), vehicle: saline) 90 % of control; under setting [14], 90 % of control; under setting [10], 115 % of control.
As for `COc1ccc(NCCOc2ccccc2Br)cc1`, the T/C runs as follows: under setting [12], 109 % of control; under setting [13], 118 % of control.
Take `CC(=O)Nc1ccc(SSSc2ccc(NC(C)=O)cc2)cc1`: the T/C reads like this: under setting [2], 100 % of control; under setting [3], 96 % of control; under setting [4], 101 % of control; under setting [6], 105 % of control; under setting [15], 111 % of control and 118 % of control.
As to `O=NN(CCCl)C(=O)N[C@H]1CCCC[C@H]1Cl`, the T/C is 104 % of control (dose: 1.0 mg/kg/injection, schedule: Q01DX009 (ip), vehicle: Klucel (hydroxypropylcellulose) (HPC)); 104 % of control (dose: 1.0 mg/kg/injection, schedule: Q04DX003 (ip), vehicle: Klucel (hydroxypropylcellulose) (HPC)); 116 % of control (dose: 1.5 mg/kg/injection, schedule: Q01DX009 (ip), vehicle: Klucel (hydroxypropylcellulose) (HPC)); 104 % of control (dose: 2.0 mg/kg/injection, schedule: Q04DX003 (ip), vehicle: Klucel (hydroxypropylcellulose) (HPC)); 104 % of control (dose: 2.3 mg/kg/injection, schedule: Q01DX009 (ip), vehicle: Klucel (hydroxypropylcellulose) (HPC)); 100 % of control (dose: 4.0 mg/kg/injection, schedule: Q04DX003 (ip), vehicle: Klucel (hydroxypropylcellulose) (HPC)). Further, the T/C was 153 % of control and 194 % of control (dose: 5.5 mg/kg/injection, schedule: Q01DX009 (ip), vehicle: Klucel (hydroxypropylcellulose) (HPC)); 159 % of control and 169 % of control and 216 % of control (dose: 8.5 mg/kg/injection, schedule: Q01DX009 (ip), vehicle: Klucel (hydroxypropylcellulose) (HPC)); 165 % of control (dose: 8.5 mg/kg/injection, schedule: Q04DX003 (ip), vehicle: Klucel (hydroxypropylcellulose) (HPC)); 305 % of control and 192 % of control (dose: 13.0 mg/kg/injection, schedule: Q01DX009 (ip), vehicle: Klucel (hydroxypropylcellulose) (HPC)); 235 % of control (dose: 13.0 mg/kg/injection, schedule: Q04DX003 (ip), vehicle: Klucel (hydroxypropylcellulose) (HPC)); 250 % of control and 333 % of control and 200 % of control (dose: 20.0 mg/kg/injection, schedule: Q01DX009 (ip), vehicle: Klucel (hydroxypropylcellulose) (HPC)). Also, the T/C runs as follows: (dose: 20.0 mg/kg/injection, schedule: Q04DX003 (ip), vehicle: Klucel (hydroxypropylcellulose) (HPC)) 270 % of control and 300 % of control; (dose: 30.0 mg/kg/injection, schedule: Q01DX009 (ip), vehicle: Klucel (hydroxypropylcellulose) (HPC)) 120 % of control; (dose: 30.0 mg/kg/injection, schedule: Q04DX003 (ip), vehicle: Klucel (hydroxypropylcellulose) (HPC)) 300 % of control; (dose: 44.0 mg/kg/injection, schedule: Q01DX009 (ip), vehicle: Klucel (hydroxypropylcellulose) (HPC)) 104 % of control; (dose: 44.0 mg/kg/injection, schedule: Q04DX003 (ip), vehicle: Klucel (hydroxypropylcellulose) (HPC)) 300 % of control; (dose: 67.0 mg/kg/injection, schedule: Q04DX003 (ip), vehicle: Klucel (hydroxypropylcellulose) (HPC)) 300 % of control.
Turning to `C[N+](C)(Cn1ncc2ccc([N+](=O)[O-])cc21)Cn1ncc2ccc([N+](=O)[O-])cc21`, where the note is “dose: 100.0 mg/kg/injection, schedule: Q04DX003 (ip), vehicle: saline with Tween-80”, the T/C was 106 % of control.
`NN(c1cccc(C(F)(F)F)c1)c1ccccn1`: the T/C runs as follows: under setting [14], 108 % of control; under setting [10], 106 % of control; under setting [11], 115 % of control.
For `NC(=O)c1nc(C(F)(F)F)[nH]c1C(N)=O`, the T/C was 107 % of control under setting [3]; 105 % of control and 107 % of control under setting [4]; 102 % of control under setting [5]; 108 % of control and 118 % of control under setting [6]; 102 % of control under setting [7]; 107 % of control and 118 % of control under setting [15]. In addition, the T/C is, setting by setting: (dose: 200.0 mg/kg/injection, schedule: Q04DX003 (ip), vehicle: water) 109 % of control; (dose: 300.0 mg/kg/injection, schedule: Q01DX009 (ip), vehicle: water) 96 % of control; (dose: 400.0 mg/kg/injection, schedule: Q01DX009 (ip), vehicle: water) 118 % of control; (dose: 400.0 mg/kg/injection, schedule: Q04DX003 (ip), vehicle: water) 102 % of control.
